Source: patent US8921360B2, “Heterobicycle-substituted azolyl benzene fungicides” (priority 2009, dated 2014)

Assays:
Type in all cases: in vivo
[1] = tested on: Puccinia recondita f. sp. tritici; test: Test C: wheat leaf rust, spray the day after inoculation of wheat seedlings; settings: Puccinia recondita, 120 h, wheat seedlings inoculated, sprayed the following day, rated after 5 days, read-out: Percentage Disease Control Test C;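 also: Curative spray on infected wheat seedlings with visual rating 5 days later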
Description: General protocol for preparing test suspensions for Tests A-G: the test compounds were first dissolved in acetone in an amount equal to 11% of the final volume and then suspended at the desired concentration (in ppm) in acetone and purified water (50/50 mix by volume) containing 250 ppm of the surfactant Trem® 014 (polyhydric alcohol esters). The resulting test suspensions were then used in Tests A-G. Spraying a 200 ppm test suspension to the point of run-off on the test plants was the equivalent of a rate of 800 g/ha. Wheat seedlings were inoculated with a spore suspension of Puccinia recondita f. sp. tritici (the causal agent of wheat leaf rust) and incubated in a saturated atmosphere at 20° C. for 24 h. The following day, the test suspension was sprayed to the point of run-off on the wheat seedlings and then moved to a growth chamber at 20° C. for 5 days, after which time disease ratings were visually made. Results for Tests A-G are given in Table A. In the Table, a rating of 100 indicates 100% disease control and a rating of 0 indicates no disease control (relative to the controls). A dash (-) indicates no test results. All results are for 200 ppm except where followed by an “*”, which indicates 40 ppm.

[2] = tested on: Septoria nodorum; test: Test D: wheat glume blotch, preventive spray on wheat seedlings; settings: Parastagonospora nodorum, 216 h, wheat seedlings sprayed to run-off, inoculated next day, rated after 48 h + 7 days, read-out: Percentage Disease Control Test D
Description: General protocol for preparing test suspensions for Tests A-G: the test compounds were first dissolved in acetone in an amount equal to 11% of the final volume and then suspended at the desired concentration (in ppm) in acetone and purified water (50/50 mix by volume) containing 250 ppm of the surfactant Trem® 014 (polyhydric alcohol esters). The resulting test suspensions were then used in Tests A-G. Spraying a 200 ppm test suspension to the point of run-off on the test plants was the equivalent of a rate of 800 g/ha. The test suspension was sprayed to the point of run-off on wheat seedlings. The following day the seedlings were inoculated with a spore suspension of Septoria nodorum (the causal agent of wheat glume blotch) and incubated in a saturated atmosphere at 20° C. for 48 h, and then moved to a growth chamber at 20° C. for 7 days, after which time disease ratings were visually made. Results for Tests A-G are given in Table A. In the Table, a rating of 100 indicates 100% disease control and a rating of 0 indicates no disease control (relative to the controls). A dash (-) indicates no test results. All results are for 200 ppm except where followed by an “*”, which indicates 40 ppm.

[3] = tested on: Septoria tritici; test: Test E: wheat leaf blotch, preventive spray on wheat seedlings; settings: Zymoseptoria tritici, 456 h, wheat seedlings sprayed to run-off, inoculated next day, rated after 48 h + 19 days, read-out: Percentage Disease Control Test E
Description: General protocol for preparing test suspensions for Tests A-G: the test compounds were first dissolved in acetone in an amount equal to 11% of the final volume and then suspended at the desired concentration (in ppm) in acetone and purified water (50/50 mix by volume) containing 250 ppm of the surfactant Trem® 014 (polyhydric alcohol esters). The resulting test suspensions were then used in Tests A-G. Spraying a 200 ppm test suspension to the point of run-off on the test plants was the equivalent of a rate of 800 g/ha. The test suspension was sprayed to the point of run-off on wheat seedlings. The following day the seedlings were inoculated with a spore suspension of Septoria tritici (the causal agent of wheat leaf blotch) and incubated in a saturated atmosphere at 24° C. for 48 h, and then moved to a growth chamber at 20° C. for 19 days, after which time disease ratings were visually made. Results for Tests A-G are given in Table A. In the Table, a rating of 100 indicates 100% disease control and a rating of 0 indicates no disease control (relative to the controls). A dash (-) indicates no test results. All results are for 200 ppm except where followed by an “*”, which indicates 40 ppm.

[4] = tested on: Botrytis cinerea; test: Test F: tomato botrytis, preventive spray on tomato seedlings; settings: Botrytis cinerea, topical, 120 h, tomato seedlings sprayed to run-off, inoculated next day, rated after 48 h + 3 days, read-out: Percentage Disease Control Test F
Description: General protocol for preparing test suspensions for Tests A-G: the test compounds were first dissolved in acetone in an amount equal to 11% of the final volume and then suspended at the desired concentration (in ppm) in acetone and purified water (50/50 mix by volume) containing 250 ppm of the surfactant Trem® 014 (polyhydric alcohol esters). The resulting test suspensions were then used in Tests A-G. Spraying a 200 ppm test suspension to the point of run-off on the test plants was the equivalent of a rate of 800 g/ha. The test suspension was sprayed to the point of run-off on tomato seedlings. The following day the seedlings were inoculated with a spore suspension of Botrytis cinerea (the causal agent of tomato botrytis) and incubated in saturated atmosphere at 20° C. for 48 h, and then moved to a growth chamber at 27° C. for 3 additional days, after which time disease ratings were visually made. Results for Tests A-G are given in Table A. In the Table, a rating of 100 indicates 100% disease control and a rating of 0 indicates no disease control (relative to the controls). A dash (-) indicates no test results. All results are for 200 ppm except where followed by an “*”, which indicates 40 ppm.

[5] = tested on: Alternaria solani; test: Test G: tomato early blight, preventive spray on tomato seedlings; settings: Alternaria solani, topical, 168 h, tomato seedlings sprayed to run-off, inoculated next day, rated after 48 h + 5 days, read-out: Percentage Disease Control Test G
Description: General protocol for preparing test suspensions for Tests A-G: the test compounds were first dissolved in acetone in an amount equal to 11% of the final volume and then suspended at the desired concentration (in ppm) in acetone and purified water (50/50 mix by volume) containing 250 ppm of the surfactant Trem® 014 (polyhydric alcohol esters). The resulting test suspensions were then used in Tests A-G. Spraying a 200 ppm test suspension to the point of run-off on the test plants was the equivalent of a rate of 800 g/ha. The test suspension was sprayed to the point of run-off on tomato seedlings. The following day the seedlings were inoculated with a spore suspension of Alternaria solani (the causal agent of tomato early blight) and incubated in a saturated atmosphere at 27° C. for 48 h, and then moved to a growth chamber at 24° C. for 5 days, after which time disease ratings were visually made. Results for Tests A-G are given in Table A. In the Table, a rating of 100 indicates 100% disease control and a rating of 0 indicates no disease control (relative to the controls). A dash (-) indicates no test results. All results are for 200 ppm except where followed by an “*”, which indicates 40 ppm.

Q: Which pest or weed control at 200 ppm [1] does the source give for `CC(=O)NCc1cc(-c2ccn(-c3ccc4c(c3)CCCO4)n2)ccc1Cl` [Compound 2, N-[[2-chloro-5-[1-(3,4-dihydro-2H-1-benzopyran-6-yl)-1H-pyrazol-3-yl]-phenyl]methyl]acetamide] here?
A: 88%

Q: And the pest or weed control at 200 ppm [2]?
A: 100%

Q: What about the pest or weed control at 40 ppm ([3]; 40 ppm (value followed by *)) of the same molecule?
A: 97%

Q: And the pest or weed control at 200 ppm [4]?
A: 0%

Q: What about the pest or weed control at 200 ppm [5] of the same molecule?
A: 53%

Q: For `O=CNCc1cc(-c2ccn(-c3ccc4c(c3)CCCO4)n2)ccc1Cl` [Compound 3, N-[[2-chloro-5-[1-(3,4-dihydro-2H-1-benzopyran-6-yl)-1H-pyrazol-3-yl]-phenyl]methyl]formamide], which pest or weed control at 200 ppm [1] is on record?
A: 0%

Q: What about the pest or weed control at 200 ppm [2] of the same molecule?
A: 99%

Q: What about the pest or weed control at 200 ppm [3] of the same molecule?
A: 78%

Q: What about the pest or weed control at 200 ppm [4] of the same molecule?
A: 0%

Q: What about the pest or weed control at 200 ppm [5] of the same molecule?
A: 0%

Q: For `CNC(=O)NCc1cc(-c2ccn(-c3ccc4c(c3)CCCO4)n2)ccc1Cl` [Compound 4, N-[[2-chloro-5-[1-(3,4-dihydro-2H-1-benzopyran-6-yl)-1H-pyrazol-3-yl]-phenyl]methyl]-N′-methylurea], which pest or weed control at 200 ppm [1] is on record?
A: 53%

Q: What about the pest or weed control at 200 ppm [2] of the same molecule?
A: 82%

Q: And the pest or weed control at 200 ppm [3]?
A: 0%

Q: What about the pest or weed control at 200 ppm [4] of the same molecule?
A: 0%

Q: And the pest or weed control at 200 ppm [5]?
A: 0%

Q: What does the source list for `COC(=O)NCc1cc(-n2ccc(-c3ccc4c(c3)CCCO4)n2)ccc1Cl` [Compound 5, methyl N-[[2-chloro-5-[3-(3,4-dihydro-2H-1-benzopyran-6-yl)-1H-pyrazol-1-yl]phenyl]methyl]carbamate]?
A: pest or weed control at 200 ppm [1]: 100%; pest or weed control at 200 ppm [2]: 100%; pest or weed control at 200 ppm [3]: 100%; pest or weed control at 200 ppm [4]: 98%; pest or weed control at 200 ppm [5]: 0%

Q: With `COC(=O)NCc1cc(-n2ccc(-c3ccc4c(c3)OCO4)n2)ccc1Cl` [Compound 6, methyl N-[[5-[3-(1,3-benzodioxol-5-yl)-1H-pyrazol-1-yl]-2-chlorophenyl]-methyl]carbamate] as the molecule, how does the pest or weed control at 200 ppm [1] read?
A: 100%

Q: What about the pest or weed control at 200 ppm [2] of the same molecule?
A: 100%

Q: What about the pest or weed control at 200 ppm [3] of the same molecule?
A: 99%

Q: And the pest or weed control at 200 ppm [4]?
A: 91%

Q: What about the pest or weed control at 200 ppm [5] of the same molecule?
A: 95%

Q: Which results are given for `COC(=O)NCc1cc(-n2ccc(-c3ccc4c(c3)OCCO4)n2)ccc1Cl` [Compound 7, methyl N-[[2-chloro-5-[3-(2,3-dihydro-1,4-benzodioxin-6-yl)-1H-pyrazol-1-yl]-phenyl]methyl]carbamate]?
A: pest or weed control at 200 ppm [1]: 100%; pest or weed control at 200 ppm [2]: 100%; pest or weed control at 200 ppm [3]: 100%; pest or weed control at 200 ppm [4]: 98%; pest or weed control at 200 ppm [5]: 97%

Q: `CC(=O)NCc1cc(-n2ccc(-c3ccc4c(c3)CCCO4)n2)ccc1Cl` [Compound 8, N-[[2-chloro-5-[3-(3,4-dihydro-2H-1-benzopyran-6-yl)-1H-pyrazol-1-yl]phenyl]methyl]acetamide] was tested. Which pest or weed control at 200 ppm [1] did it give?
A: 26%

Q: And the pest or weed control at 200 ppm [2]?
A: 100%

Q: And the pest or weed control at 200 ppm [3]?
A: 98%

Q: And the pest or weed control at 200 ppm [4]?
A: 73%

Q: And the pest or weed control at 200 ppm [5]?
A: 91%

Q: How did the pest or weed control at 200 ppm [1] turn out when `CNC(=O)NCc1cc(-n2ccc(-c3ccc4c(c3)CCCO4)n2)ccc1Cl` [Compound 9, N-[[2-chloro-5-[3-(3,4-dihydro-2H-1-benzopyran-6-yl)-1H-pyrazol-1-yl]phenyl]methyl]-N′-methylurea] was run?
A: 8%

Q: And the pest or weed control at 200 ppm [2]?
A: 100%

Q: What about the pest or weed control at 200 ppm [3] of the same molecule?
A: 79%

Q: What about the pest or weed control at 200 ppm [4] of the same molecule?
A: 0%

Q: What about the pest or weed control at 200 ppm [5] of the same molecule?
A: 9%

Q: Which pest or weed control at 200 ppm [1] does the source give for `COC(=O)NCc1cc(-n2ccc(-c3ccc4c(c3)CCCO4)n2)ccc1F` [Compound 11, methyl N-[[5-[3-(3,4-dihydro-2H-1-benzopyran-6-yl)-1H-pyrazol-1-yl]-2-fluorophenyl]methyl]carbamate] here?
A: 100%

Q: And the pest or weed control at 200 ppm [2]?
A: 100%

Q: What about the pest or weed control at 200 ppm [3] of the same molecule?
A: 100%

Q: And the pest or weed control at 200 ppm [4]?
A: 0%

Q: What about the pest or weed control at 200 ppm [5] of the same molecule?
A: 40%

Q: For `COC(=O)NCc1cc(-c2ccn(-c3ccc4c(c3)CCCO4)n2)ccc1F` [Compound 12, methyl N-[[5-[1-(3,4-dihydro-2H-1-benzopyran-6-yl)-1H-pyrazol-3-yl]-2-fluorophenyl]methyl]carbamate], which pest or weed control at 200 ppm [1] is on record?
A: 100%

Q: What about the pest or weed control at 200 ppm [2] of the same molecule?
A: 100%

Q: What about the pest or weed control at 200 ppm [3] of the same molecule?
A: 100%

Q: What about the pest or weed control at 200 ppm [4] of the same molecule?
A: 0%

Q: What about the pest or weed control at 200 ppm [5] of the same molecule?
A: 88%

Q: For `COC(=O)NCc1cc(-c2ccn(-c3ccc4c(c3)CCCO4)n2)ccc1C` [Compound 20, methyl N-[[5-[1-(3,4-dihydro-2H-1-benzopyran-6-yl)-1H-pyrazol-3-yl]-2-methylphenyl]methyl]carbamate], which pest or weed control at 200 ppm [1] is on record?
A: 100%

Q: What about the pest or weed control at 200 ppm [2] of the same molecule?
A: 100%

Q: What about the pest or weed control at 200 ppm [3] of the same molecule?
A: 100%

Q: And the pest or weed control at 200 ppm [4]?
A: 95%

Q: What about the pest or weed control at 200 ppm [5] of the same molecule?
A: 90%

Q: Which results are given for `COC(=O)NCc1cc(-c2ccn(-c3ccc4c(c3)C=C(C(=O)OC)CO4)n2)ccc1Cl` [Compound 23, methyl 6-[3-[4-chloro-3-[[(methoxycarbonyl)amino]methyl]phenyl]-1H-pyrazol-1-yl]-2H-1-benzopyran-3-carboxylate]?
A: pest or weed control at 200 ppm [1]: 0%; pest or weed control at 200 ppm [2]: 73%; pest or weed control at 200 ppm [3]: 0%; pest or weed control at 200 ppm [4]: 0%; pest or weed control at 200 ppm [5]: 0%

Q: How did the pest or weed control at 200 ppm [1] turn out when `COC(=O)NCc1cc(-c2ccn(-c3ccc4c(c3)C=C(C(=O)O)CO4)n2)ccc1Cl` [Compound 24, 6-[3-[4-chloro-3-[[(methoxycarbonyl)amino]methyl]phenyl]-1H-pyrazol-1-yl]-2H-1-benzopyran-3-carboxylic acid] was run?
A: 0%

Q: What about the pest or weed control at 200 ppm [2] of the same molecule?
A: 89%

Q: What about the pest or weed control at 200 ppm [3] of the same molecule?
A: 0%

Q: And the pest or weed control at 200 ppm [4]?
A: 0%

Q: What about the pest or weed control at 200 ppm [5] of the same molecule?
A: 0%
